For experiment [1], the target named is T1, T790M/L858R/C797S transformed Ba/F3 cells (Homo sapiens, UniProt P00533, T790M/C797S/L858R, cells depend on it).
T1 construct: The constructs were shuttled into the retroviral vector JP 1540 using the BD Creator™ System (BD Biosciences)
Kind of experiment: Ba/F3 cell proliferation (MTS) assay, T790M/L858R/C797S. The format is cell-based, murine. The conditions noted are these: antiproliferative activity.

Experiment [2] addresses T2, T790M/L858R transformed Ba/F3 cells (Homo sapiens, UniProt P00533, T790M/L858R, cells depend on it).
T2 construct: The constructs were shuttled into the retroviral vector JP 1540 using the BD Creator™ System (BD Biosciences)
As to the kind of experiment: Ba/F3 cell proliferation (MTS) assay, T790M/L858R. The conditions noted are these: for EC50: antiproliferative activity; for % control: compound at 1 μM, inhibition of growth as percent of control. The format is cell-based, murine. From the text:
The EGFR mutant L858R, Del E746_A750, L858R/T790M, DelE746_A750/T790M, L858R/T790M/C797S and Del/T790M/C797S Ba/F3 cells have been previously described (Zhou, W., Ercan, D., Chen, L., Yun, C. H., Li, D., Capelletti, M., Cortot, A. B., Chirieac, L., Iacob, R. E., Padera, R., et al. “Novel mutant-selective EGFR kinase inhibitors against EGFR T790M,” Nature 462, (2009), 1070-1074). All cell lines were maintained in RPMI 1640 (Cellgro; Mediatech Inc., Herndon, Calif.) supplemented with 10% FBS 100 units/mL penicillin, 100 units/mL streptomycin, and 2 mM glutamine. L858R cells were maintained in ACL-4 media (Invitrogen, Carlsbad, Calif.) supplemented with 5% FBS, 100 units/mL penicillin, 100 units/mL streptomycin, and 2 mM glutamine. The EGFR I941R mutation was introduced via site directed mutagenesis using the Quick Change Site-Directed Mutagenesis kit (Stratagene; La Jolla, Calif.) according to the manufacturer's instructions. All constructs were confirmed by DNA sequencing. The constructs were shuttled into the retroviral vector JP 1540 using the BD Creator™ System (BD Biosciences). Ba/F3 cells were infected with retrovirus and according to standard protocols, as described previously (Zhou et al, Nature 2009). Stable clones were obtained by selection in puromycin (2 μg/ml).
Growth and inhibition of growth was assessed by MTS assay and was performed according to previously established methods (Zhou et al., Nature 2009). The MTS assay is a colorimetric method for determining the number of viable cells that is based on the bioreduction of MTS by cells to a formazan product that is soluble in cell culture medium and can be detected spectrophotometrically. Ba/F3 cells of different EGFR genotypes were exposed to treatment for 72 hours and the number of cells used per experiment determined empirically and has been previously established (Zhou et al., Nature 2009). All experimental points were set up in six wells and all experiments were repeated at least three times. […] The curves were fitted using a non-linear regression model with a sigmoidal dose response.
Compounds of Table 1 were tested at a concentration of 1 μM against T790M/L858R transformed Ba/F3 cells. The assay, as described in Example 42, measured inhibition of growth as a percent of the inhibitory activity of the control. In Table 1, A is 0<% control <25, B is 25<% control <50, C is 50<% control <75, and D is 75<% control.
Compounds of Table 2 were tested in a T790M/L858R transformed Ba/F3 cell line as described in Example 42 and the EC50 values were calculated. In Table 2, A is EC50<500 nM, B is 500 nM<EC50<1000 nM, C is 1000 nM<EC50<5000 nM, and D is 5000 nM<EC50.

Each structure is given as a SMILES string. A value given as a limit tells only on which side of the number the result lay.

T1 sequence (P00533 whole entry T790M/C797S/L858R): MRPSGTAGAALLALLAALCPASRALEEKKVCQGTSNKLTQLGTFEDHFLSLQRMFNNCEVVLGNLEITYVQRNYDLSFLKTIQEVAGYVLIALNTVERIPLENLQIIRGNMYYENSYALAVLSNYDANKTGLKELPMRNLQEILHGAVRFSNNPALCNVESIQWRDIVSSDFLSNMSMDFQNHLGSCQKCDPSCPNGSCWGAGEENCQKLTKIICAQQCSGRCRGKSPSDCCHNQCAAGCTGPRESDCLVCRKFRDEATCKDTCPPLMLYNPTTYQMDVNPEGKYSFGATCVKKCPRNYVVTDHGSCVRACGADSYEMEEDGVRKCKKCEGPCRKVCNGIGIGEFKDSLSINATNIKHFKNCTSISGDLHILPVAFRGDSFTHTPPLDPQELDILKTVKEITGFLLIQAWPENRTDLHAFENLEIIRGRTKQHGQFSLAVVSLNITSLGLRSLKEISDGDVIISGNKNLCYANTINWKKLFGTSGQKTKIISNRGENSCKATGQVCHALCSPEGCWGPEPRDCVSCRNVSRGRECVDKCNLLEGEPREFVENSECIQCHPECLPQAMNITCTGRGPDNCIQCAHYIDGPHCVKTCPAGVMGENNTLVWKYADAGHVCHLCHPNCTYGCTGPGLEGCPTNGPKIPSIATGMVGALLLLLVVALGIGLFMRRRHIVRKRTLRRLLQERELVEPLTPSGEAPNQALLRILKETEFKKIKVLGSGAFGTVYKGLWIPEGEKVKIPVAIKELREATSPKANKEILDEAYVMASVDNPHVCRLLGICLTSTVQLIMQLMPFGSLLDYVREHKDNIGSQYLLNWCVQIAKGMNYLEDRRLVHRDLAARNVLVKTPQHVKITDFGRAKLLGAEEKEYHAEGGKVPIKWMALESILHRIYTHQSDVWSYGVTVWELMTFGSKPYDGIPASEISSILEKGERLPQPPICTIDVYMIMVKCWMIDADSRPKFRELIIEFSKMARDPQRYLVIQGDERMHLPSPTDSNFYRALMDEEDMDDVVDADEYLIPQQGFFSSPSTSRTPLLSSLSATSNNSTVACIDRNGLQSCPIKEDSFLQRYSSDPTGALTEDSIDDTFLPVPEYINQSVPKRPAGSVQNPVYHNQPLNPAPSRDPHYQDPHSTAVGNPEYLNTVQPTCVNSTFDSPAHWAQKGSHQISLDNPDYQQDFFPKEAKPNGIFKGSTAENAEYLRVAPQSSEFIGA
T2 sequence (P00533 whole entry T790M/L858R): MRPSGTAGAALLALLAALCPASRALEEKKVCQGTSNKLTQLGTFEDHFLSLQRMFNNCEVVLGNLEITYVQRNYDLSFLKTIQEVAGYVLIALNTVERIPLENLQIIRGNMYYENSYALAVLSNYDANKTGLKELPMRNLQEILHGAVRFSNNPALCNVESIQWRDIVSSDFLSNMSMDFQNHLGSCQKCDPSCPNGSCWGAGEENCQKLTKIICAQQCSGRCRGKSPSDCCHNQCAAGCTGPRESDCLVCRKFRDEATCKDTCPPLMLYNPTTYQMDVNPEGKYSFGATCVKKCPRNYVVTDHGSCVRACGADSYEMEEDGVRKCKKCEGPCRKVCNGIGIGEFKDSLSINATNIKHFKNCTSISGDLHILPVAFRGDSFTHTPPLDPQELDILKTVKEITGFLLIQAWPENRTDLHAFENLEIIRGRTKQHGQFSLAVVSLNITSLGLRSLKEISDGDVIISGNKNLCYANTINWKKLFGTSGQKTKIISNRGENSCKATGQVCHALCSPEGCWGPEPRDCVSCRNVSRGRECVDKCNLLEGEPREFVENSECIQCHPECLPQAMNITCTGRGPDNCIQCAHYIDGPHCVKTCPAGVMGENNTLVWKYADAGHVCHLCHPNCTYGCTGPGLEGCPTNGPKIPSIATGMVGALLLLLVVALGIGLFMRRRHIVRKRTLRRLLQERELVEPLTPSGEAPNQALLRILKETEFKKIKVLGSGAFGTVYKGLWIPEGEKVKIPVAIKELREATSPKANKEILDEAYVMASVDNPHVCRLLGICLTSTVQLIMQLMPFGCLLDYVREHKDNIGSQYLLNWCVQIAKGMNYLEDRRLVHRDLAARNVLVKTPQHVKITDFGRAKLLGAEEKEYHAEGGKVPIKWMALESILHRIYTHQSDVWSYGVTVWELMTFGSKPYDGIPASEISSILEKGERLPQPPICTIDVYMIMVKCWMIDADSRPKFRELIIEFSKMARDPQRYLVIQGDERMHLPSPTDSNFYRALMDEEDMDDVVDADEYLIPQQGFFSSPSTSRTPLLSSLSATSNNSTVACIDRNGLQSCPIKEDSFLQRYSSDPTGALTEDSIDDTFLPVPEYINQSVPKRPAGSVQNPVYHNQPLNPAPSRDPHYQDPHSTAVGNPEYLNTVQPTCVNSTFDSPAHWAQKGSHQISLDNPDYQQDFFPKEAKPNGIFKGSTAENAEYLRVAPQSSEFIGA

Regarding `O=C1CCC(N2C(=O)c3cccc(NCCOCCOCCN4CCN(c5ccc(-c6ccc7c(c6)C(=O)N(C(C(=O)Nc6nccs6)c6cc(F)ccc6O)C7)cc5)CC4)c3C2=O)C(=O)N1` (centres unmarked) [Compound I-33], in experiment [1], the EC50 (in general, the concentration at which the effect is half-maximal) was 1 to 5 µM. Moreover, in experiment [2], the EC50 was below 500 nM and the “% control” value was “A (A is 0<% control <25)”.
Compound `O=C1CCC(N2C(=O)c3cccc(NCCOCCOCCC(=O)N4CCN(c5ccc(-c6ccc7c(c6)C(=O)N(C(C(=O)Nc6nccs6)c6cc(F)ccc6O)C7)cc5)CC4)c3C2=O)C(=O)N1` (centres unmarked) [Compound I-28, 2-(6-(4-(4-(3-(2-(2-((2-(2,6-dioxopiperidin-3-yl)-1,3-dioxoisoindolin-4-yl)amino)ethoxy)ethoxy)propanoyl)piperazin-1-yl)phenyl)-1-oxoisoindolin-2-yl)-2-(5-fluoro-2-hydroxyphenyl)-N-(thiazol-2-yl)acetamide] showed an EC50 in experiment [1] above 5 µM. Further, in experiment [2], the half-maximal effective concentration (EC50) lay in the range of 500 to 1000 nM and the “% control” value is recorded as “A (A is 0<% control <25)”.
Compound `O=C1CCC(N2C(=O)c3cccc(NC4CN(CCOCCOCCN5CCN(c6ccc(-c7ccc8c(c7)C(=O)N(C(C(=O)Nc7nccs7)c7ccccc7)C8)cc6)CC5)C4)c3C2=O)C(=O)N1` (centres unmarked) [Compound I-15, 2-(6-(4-(4-(2-(2-(2-(3-((2-(2,6-Dioxopiperidin-3-yl)-1,3-dioxoisoindolin-4-yl)amino)azetidin-1-yl)ethoxy)ethoxy)ethyl)piperazin-1-yl)phenyl)-1-oxoisoindolin-2-yl)-2-phenyl-N-(thiazol-2-yl)acetamide] had an EC50 in experiment [1] above 5 µM. In experiment [2], the EC50 is 1000 to 5000 nM and the “% control” value was “C (C is 50<% control <75)”.
Turning to `O=C1CCC(N2C(=O)c3cccc(NC4CN(CCOCCOCCOCCN5CCN(c6ccc(-c7ccc8c(c7)C(=O)N(C(C(=O)Nc7nccs7)c7ccccc7)C8)cc6)CC5)C4)c3C2=O)C(=O)N1` (centres unmarked) [Compound I-16, 2-(6-(4-(4-(2-(2-(2-(2-(3-((2-(2,6-Dioxopiperidin-3-yl)-1,3-dioxoisoindolin-4-yl)amino)azetidin-1-yl)ethoxy)ethoxy)ethoxy)ethyl)piperazin-1-yl)phenyl)-1-oxoisoindolin-2-yl)-2-phenyl-N-(thiazol-2-yl)acetamide], the values for the EC50 in experiment [1] and in experiment [2] were above 5 µM and 1000 to 5000 nM, respectively. Besides, the “% control” value in experiment [2] was “C (C is 50<% control <75)”.
Consider `O=C1CCC(N2C(=O)c3cccc(NCCCCCCN4CCN(c5ccc(-c6ccc7c(c6)C(=O)N(C(C(=O)Nc6nccs6)c6cc(F)ccc6O)C7)cc5)CC4)c3C2=O)C(=O)N1` (centres unmarked) [Compound I-11, 2-(6-(4-(4-(6-((2-(2,6-Dioxopiperidin-3-yl)-1,3-dioxoisoindolin-4-yl)amino)hexyl)piperazin-1-yl)phenyl)-1-oxoisoindolin-2-yl)-2-(5-fluoro-2-hydroxyphenyl)-N-(thiazol-2-yl)acetamide], for which the EC50 in experiment [1] is above 5 µM. Moreover, in experiment [2], the EC50 fell in the range of 1000 to 5000 nM and the “% control” value is listed as “B (B is 25<% control <50)”.
`Cc1ncsc1-c1ccc([C@H](C)NC(=O)[C@@H]2C[C@@H](O)CN2C(=O)[C@@H](NC(=O)CCOCCOCCOCCN2CCN(c3ccc(-c4ccc5c(c4)C(=O)N(C(C(=O)Nc4nccs4)c4ccccc4)C5)cn3)CC2)C(C)(C)C)cc1` (stereo partly drawn) [Compound I-23, (2S,4R)-1-((14S)-14-(tert-Butyl)-12-oxo-1-(4-(5-(3-oxo-2-(2-oxo-1-phenyl-2-(thiazol-2-ylamino)ethyl)isoindolin-5-yl)pyridin-2-yl)piperazin-1-yl)-3,6,9-trioxa-13-azapentadecan-15-oyl)-4-hydroxy-N—((S)-1-(4-(4-methylthiazol-5-yl)phenyl)ethyl)pyrrolidine-2-carboxamide]: the EC50 in experiment [1] was above 5 µM. Moreover, in experiment [2], the EC50 was above 5000 nM and the “% control” value was “D (D is 75<% control)”.
On to `O=C1CCC(N2C(=O)c3cccc(NCCOCCOCCOCCN4CCN(c5ccc(-c6ccc7c(c6)C(=O)N(C(C(=O)Nc6nccs6)c6cc(F)ccc6O)C7)cc5)CC4)c3C2=O)C(=O)N1` (centres unmarked) [Compound I-10, 2-(6-(4-(4-(2-(2-(2-(2-((2-(2,6-Dioxopiperidin-3-yl)-1,3-dioxoisoindolin-4-yl)amino)ethoxy)ethoxy)ethoxy)ethyl)piperazin-1-yl)phenyl)-1-oxoisoindolin-2-yl)-2-(5-fluoro-2-hydroxyphenyl)-N-(thiazol-2-yl)acetamide], for which the EC50 in experiment [1] is above 5 µM. In experiment [2], the EC50 is 1000 to 5000 nM and the “% control” value was “B (B is 25<% control <50)”.
Take `O=C1CCC(N2C(=O)c3cccc(NCCOCCOCCOCCN4CCN(c5ccc(-c6ccc7c(c6)C(=O)N(C(C(=O)Nc6nccs6)c6ccccc6)C7)cc5)CC4)c3C2=O)C(=O)N1` (centres unmarked) [Compound I-18, 2-(6-(4-(4-(2-(2-(2-(2-((2-(2,6-Dioxopiperidin-3-yl)-1,3-dioxoisoindolin-4-yl)amino)ethoxy)ethoxy)ethoxy)ethyl)piperazin-1-yl)phenyl)-1-oxoisoindolin-2-yl)-2-phenyl-N-(thiazol-2-yl)acetamide]: the results for the EC50 in experiment [1] and in experiment [2] were below 0.5 µM and below 500 nM, respectively. Also, in experiment [2], the “% control” value is recorded as “A (A is 0<% control <25)”.
In experiment [1], `O=C1CCC(N2C(=O)c3cccc(NCCOCCOCCOCCC(=O)N4CCN(c5ccc(-c6ccc7c(c6)C(=O)N(C(C(=O)Nc6nccs6)c6ccccc6)C7)cc5)CC4)c3C2=O)C(=O)N1` (centres unmarked) [Compound I-1, 2-(6-(4-(4-(3-(2-(2-(2-((2-(2,6-Dioxopiperidin-3-yl)-1,3-dioxoisoindolin-4-yl)amino)ethoxy)ethoxy)ethoxy)propanoyl)piperazin-1-yl)phenyl)-1-oxoisoindolin-2-yl)-2-phenyl-N-(thiazol-2-yl)acetamide] showed an EC50 of 0.5 to 1 µM. In addition, in experiment [2], the EC50 was below 500 nM and the “% control” value is recorded as “A (A is 0<% control <25)”.
With `O=C1CCC(N2C(=O)c3cccc(NCCOCCC(=O)N4CCN(c5ccc(-c6ccc7c(c6)C(=O)N(C(C(=O)Nc6nccs6)c6cc(F)ccc6O)C7)cc5)CC4)c3C2=O)C(=O)N1` (centres unmarked) [Compound I-29, 2-(6-(4-(4-(3-(2-((2-(2,6-dioxopiperidin-3-yl)-1,3-dioxoisoindolin-4-yl)amino)ethoxy)propanoyl)piperazin-1-yl)phenyl)-1-oxoisoindolin-2-yl)-2-(5-fluoro-2-hydroxyphenyl)-N-(thiazol-2-yl)acetamide], in experiment [1], the EC50 was above 5 µM. Moreover, in experiment [2], the EC50 lay in the range of 500 to 1000 nM and the “% control” value is recorded as “A (A is 0<% control <25)”.
For `Cc1ncsc1-c1ccc([C@H](C)NC(=O)[C@@H]2C[C@@H](O)CN2C(=O)[C@@H](NC(=O)CCOCCOCCN2CCN(c3ccc(-c4ccc5c(c4)C(=O)N(C(C(=O)Nc4nccs4)c4ccccc4)C5)cn3)CC2)C(C)(C)C)cc1` (stereo partly drawn) [Compound I-24, (2S,4R)-1-((2S)-3,3-Dimethyl-2-(3-(2-(2-(4-(5-(3-oxo-2-(2-oxo-1-phenyl-2-(thiazol-2-ylamino)ethyl)isoindolin-5-yl)pyridin-2-yl)piperazin-1-yl)ethoxy)ethoxy)propanamido)butanoyl)-4-hydroxy-N—((S)-1-(4-(4-methylthiazol-5-yl)phenyl)ethyl)pyrrolidine-2-carboxamide], the EC50 in experiment [1] is above 5 µM; in experiment [2], above 5000 nM.

The record behind these values is US11161842B2, “Bifunctional molecules for degradation of EGFR and methods of use” (Dana-Farber Cancer Institute, Inc., priority 2016, dated 2021).
